Measurements published in US6410558B1, “Fungicides for the control of take-all disease of plants” (Monsanto Technology LLC, priority 1991, dated 2002).

Tested on: Gaeumannomyces graminis var. tritici (Ggt)
Assay: In vitro Assay: mycelial growth of Ggt on minimal media agar plates containing test compound
Assay type: cell-based
Settings: dark, 19-20° C., 4 to 5 days, diameter of mycelial growth; for inhibition at 0.1 ppm / inhibition at 1 ppm / inhibition at 10 ppm: Gaeumannomyces graminis; for inhibition at 0.1 ppm / In vitro (ppm) 0.1, Percent Inhibition: 0.1 ppm in minimal media agar; for inhibition at 0.1 ppm: read-out: In vitro (ppm) 0.1, Percent Inhibition; for inhibition at 1 ppm / In vitro (ppm) 1, Percent Inhibition: 1 ppm in minimal media agar; for inhibition at 1 ppm: read-out: In vitro (ppm) 1, Percent Inhibition; for inhibition at 10 ppm / In vitro (ppm) 10, Percent Inhibition: 10 ppm in minimal media agar; for inhibition at 10 ppm: read-out: In vitro (ppm) 10, Percent Inhibition
In short: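 Ggt mycelial diameter read after 4 to 5 days in darkness at 19-20° C, from three 4-mm plugs placed on Czapek Dox minimal agar containing test compound delivered in acetone. Inhibition expressed as percent versus untreated plates, plug size (4 mm) subtracted from both.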

SMILES | inhibition at 0.1 ppm [%] | inhibition at 1 ppm [%] | inhibition at 10 ppm [%] | In vitro (ppm) 0.1, Percent Inhibition | In vitro (ppm) 1, Percent Inhibition | In vitro (ppm) 10, Percent Inhibition [%]
C=C(C)CNC(=O)c1c(Cl)cccc1[Si](C)(C)C [Example 147, 2-Chloro-N-(2-methyl-2-propenyl)-6-(trimethylsilyl)benzamide] | < 0 | < 0 | 58 |  |  | 
C[Si](C)(C)c1cccc(Cl)c1C(=O)N1CC=CCC1 [Example 148, 1-[2-Chloro-6-(trimethylsilyl)benzoyl]-1,2,3,6-(tetrahydro)pyridine] |  |  |  | N (If the calculation resulted in “0” or less, as compared to the untreated control, a “N” is shown to indicate no control.) | N (If the calculation resulted in “0” or less, as compared to the untreated control, a “N” is shown to indicate no control.) | 53
CC1C=CC(C)N1C(=O)c1c(Cl)cccc1[Si](C)(C)C (stereo not drawn) [Example 149, 1-[2-Chloro-6-(trimethylsilyl)benzoyl)-2,5-dihydro-2,5-dimethyl-1H-pyrrole] | < 0 | < 0 | 80 |  |  | 
CC(CO)NC(=O)c1c(Cl)cccc1[Si](C)(C)C (stereo not drawn) [Example 154, 2-Chloro-N-(2-hydroxy-1-methylethyl)-6-(trimethylsilyl)benzamide] | < 0 | < 0 | 69 |  |  | 
CC(C)c1ccccc1NC(=O)c1c(Cl)cccc1[Si](C)(C)C [Example 156, 2-Chloro-N-[2-(1-methylethyl)phenyl]-6-(trimethylsilyl)benzamide] | 9 | 33 | 72 |  |  | 
C[Si](C)(C)c1cccc(Cl)c1C(=O)Nc1ccccc1C1CCCC1 [Example 158, 2-Chloro-N-(2-cyclopentylphenyl)-6-(trimethylsilyl)benzamide] | 2 | 33 | 44 |  |  | 
CC(NC(=O)c1c(Cl)cccc1[Si](C)(C)C)c1ccccc1 (stereo not drawn) [Example 161, 2-Chloro-N-(1-phenylethyl)-6-(trimethylsilyl)benzamide] | 22 | 17 | 61 |  |  | 
CC(C)CNC(=O)c1c(Cl)cccc1[Si](C)(C)C [Example 162, 2-Chloro-N-(2-methylpropyl)-6-(trimethylsilyl)benzamide] | 3 | < 0 | 57 |  |  | 
C[Si](C)(C)c1cccc(Cl)c1C(=O)NC1CCC1 [Example 163, 2-Chloro-N-cyclobutyl-6-(trimethylsilyl)benzamide] | 24 | 85 | 100 |  |  | 
CC(C)N(C)C(=O)c1c(Cl)cccc1[Si](C)(C)C [Example 164, 2-Chloro-N-methyl-N-(1-methylethyl)-6-(trimethylsilyl)benzamide] | 3 | 3 | 70 |  |  | 
CC(C)N(O)C(=O)c1c(Cl)cccc1[Si](C)(C)C.[Fe+3].[OH-].[OH-].[OH-] [Example 168, 2-Chloro-N-hydroxy-N-(1-methylethyl)-6-(trimethylsilyl)benzamide, compd. with iron hydroxide (1:1)] |  |  |  | 57% | 96% | 100
CCN=C(SCC)c1c(Cl)cccc1[Si](C)(C)C [Example 169, 2-Chloro-N-ethyl-6-(trimethylsilyl)benzenecarboximidothioic acid, ethyl ester] | < 0 | 31 | 100 |  |  | 
C[Si](C)(C)c1cccc(Cl)c1C(=O)NC(c1ccccc1)n1nnc2ccccc21 (stereo not drawn) [Example 170, N-(1H-Benzotriazol-1-ylphenylmethyl)-2-chloro-6-(trimethylsilyl)benzamide] | 12 | 9 | 63 |  |  | 
CC(C)NC(=O)NC(=O)c1c(Cl)cccc1[Si](C)(C)C [Example 173, 2-Chloro-N-(isopropylaminocarbonyl)-6-(trimethylsilyl)benzamide] | 4 | 12 | 92 |  |  | 
C[Si](C)(C)c1cccc(Cl)c1NC(=O)C(Cl)(Cl)Cl [Example 175, 2,2,2-Trichloro-N-[2-chloro-6-(trimethylsilyl)phenyl]acetamide] | 35 | 48 | 60 |  |  | 
CCNC(=O)c1c(Br)cccc1[Si](C)(C)C [Example 176, 2-Bromo-N-ethyl-6-(trimethylsilyl)benzamide] | 83 | 97 | 97 |  |  | 
CCNC(=O)c1c([Si](C)(C)C)csc1Cl [Example 177, 2-Chloro-N-ethyl-4-(trimethylsilyl)-3-thiophenecarboxamide] | 11 | 19 | 100 |  |  | 
CCNC(=O)n1cccc1[Si](C)(C)C [Example 178, N-Ethyl-2-(trimethylsilyl)-1H-pyrrole-1-carboxamide] | < 0 | 15 | 54 |  |  | 

SMILES | inhibition at 0.1 ppm [%] | inhibition at 1 ppm [%] | inhibition at 10 ppm [%] | In vitro (ppm) 0.1, Percent Inhibition | In vitro (ppm) 1, Percent Inhibition | In vitro (ppm) 10, Percent Inhibition [%]
CCNC(=O)c1c(Cl)cccc1[Si](C)(C)C1CCCCC1 [Example 181, 2-Chloro-6-(cyclohexyldimethylsilyl)-N-ethylbenzamide] | 12 | 33 | 58 |  |  | 
CCCCCCCC[Si](C)(C)c1cccc(Cl)c1C(=O)NCC [Example 182, 2-Chloro-6-(dimethyloctylsilyl)-N-ethylbenzamide] | 30 | 58 | 73 |  |  | 
CCNC(=O)c1c(Cl)cccc1[Si](C)(C)C1CC2CCC1C2 (stereo not drawn) [Example 183, 2-(Bicyclo[2.2.1]Hept-2-yldimethylsilyl)-6-chloro-N-ethylbenzamide] | 24 | 35 | 56 |  |  | 
CCNC(=O)c1c(Cl)cccc1[Si](C)(C)c1ccccc1 [Example 184, 2-Chloro-6-(dimethylphenylsilyl)-N-ethylbenzamide] | < 0 | 11 | 83 |  |  | 
CCNC(=O)c1c(Cl)cccc1[Si](C)(C)C(C)(C)C [Example 185, 2-Chloro-6-[(1,1-dimethylethyl)dimethylsilyl]-N-ethylbenzamide] | 48 | 56 | 72 |  |  | 
CCN(C(=O)c1ccccc1C(C)(C)C)C(OC)C(C)(C)C (stereo not drawn) [Example 186, 2-(1,1-Dimethylethyl)-N-ethyl-N-(1-methoxy-2,2-dimethylpropyl)benzamide] | < 0 | < 0 | 67 |  |  | 
CCN(C)C(=O)c1c(Cl)cccc1N(C)C(C)(C)C [Example 189, 2-Chloro-6-[(1,1-dimethylethyl)methylamino]-N-ethyl-N-methylbenzamide] | 4 | 13 | 65 |  |  | 
CCNC(=O)c1c(Cl)cccc1N(C)C(C)(C)C [Example 190, 2-Chloro-6-[(1,1-dimethylethyl)methylamino]-N-ethylbenzamide] | 24 | 76 | 80 |  |  | 
CCNC(=O)c1c(Cl)cc(C=O)cc1[Si](C)(C)C [Example 193, 2-Chloro-N-ethyl-4-formyl-6-(trimethylsilyl)benzamide] | 35 | 30 | 57 |  |  | 
CCNC(=O)c1c(F)cccc1[S+]([O-])C(C)(C)C (stereo not drawn) [Example 194, 2-[(1,1-Dimethylethyl)sulfinyl]-N-ethyl-6-fluorobenzamide] | 82 | 100 | 100 |  |  | 
CCN(CC)C(=O)c1c(F)cccc1[S+]([O-])C(C)(C)C (stereo not drawn) [Example 195, N,N-Diethyl 2-[(1,1-dimethylethyl)sulfinyl]-6-fluorobenzamide] | 35 | 29 | 56 |  |  | 
CC(C)NC(=O)c1c(F)cccc1[S+]([O-])C(C)(C)C (stereo not drawn) [Example 196, N-(1-Methylethyl)-2-[(1,1-dimethylethyl)sulfinyl]-6-fluorobenzamide] | 3 | 56 | 100 |  |  | 
CCNC(=O)c1c([Si](C)(C)C)ccc(Cl)c1Cl [Example 203, 2,3-Dichloro-N-ethyl-6-(trimethylsilyl)benzamide] | 79 | 84 | 91 |  |  | 
CN(C)NC(=O)c1c([Si](C)(C)C)ccc(Cl)c1Cl [Example 205, 2,3-Dichloro-6-(trimethylsilyl)benzoic acid, 2,2-dimethylhydrazide] | 5 | 47 | 81 |  |  | 
C#CCNC(=O)c1c(Br)cccc1[Si](C)(C)C [Example 206, 2-Bromo-N-2-propynyl-6-(trimethylsilyl)benzamide] | 86 | 97 | 100 |  |  | 
CCNC(=O)c1c(I)cccc1[Si](C)(C)C [Example 207, N-Ethyl-2-iodo-6-(trimethylsilyl)benzamide] | 31 | 90 | 97 |  |  | 
C#CCNC(=O)c1c(I)cccc1[Si](C)(C)C [Example 208, 2-Iodo-N-2-propynyl-6-(trimethylsilyl)benzamide] | < 0 | 83 | 97 |  |  | 
